Source: patent publication US8637528B2, “Use of PDE7 inhibitors for the treatment of movement disorders” (Omeros Corporation, priority 2007, dated 2014)
Entries after “also recorded” stand apart in the source; their conditions may differ. Where two headings read alike, the source gives them in different places.

Tests used:
[1] = target: T1, Catechol-O-Methyltransferase (COMT) (Sus scrofa, UniProt D3K5L3); conditions: read-out: Positive Control Expected IC50 (historical), COMT; historical value; cited from earlier work
[2] = target: T1, Catechol-O-Methyltransferase (COMT); assay: biochemical; assay type: biochemical, pig
[3] = target: PDE7B (Homo sapiens (Human), UniProt Q9NP56); assay: PDE7 phosphodiesterase scintillation proximity assay (SPA), PDE7B; assay type: biochemical
[4] = system: MPTP-treated mice; assay: inked paw stride length in the MPTP mouse model of Parkinson's disease, panel of PDE7 inhibitors (Example 7); assay type: in vivo; conditions: 20 minutes after dose
Method: Adult male C57BL/6J; retired breeders, aged between 7-9 months Charles River Laboratories, Wilmington, Mass.), singly housed. Three groups of 35 mice were tested in series one week apart.
Mice received 2 subcutaneous injections of methylphenyltetrahydropyridine (“MPTP”) at a dose of 15 mg/kg (free base) with a 10-12 hour interval between injections. Control mice (sham lesion groups) were administered saline instead of MPTP.
Prior to injection with MPTP or saline, animals were pre-trained to walk across a clean sheet of paper into their home cage without stopping. For assessment of stride length, animals had their forepaws placed in black ink and the length of forepaw steps during normal walking (in a straight line only) was measured. The animals were immediately put back into their home cage upon completion of the task. Stride length was determined by measuring the distance between each step on the same side of the body, measuring from the middle toe of the first step to the heel of the second step. An average of at least four clear steps was calculated. The schedule for this experiment was as follows:
Because of the wide variation in aqueous solubility among these compounds, a number of different formulations were required. L-dopa was administered in 100 μl of phosphate buffered saline. For animals treated with L-dopa, the dopa decarboxylase inhibitor benserazide (100 μL of a 12.5 mg/kg solution) was administered 15 minutes prior to treatment with L-dopa in order to minimize the destruction of L-dopa in the peripheral blood. […] Therefore, the treatment effects observed are due solely to the PDE7 inhibitory compounds themselves. […] This phenomenon of “overshoot” has also been observed with L-dopa in MPTP-treated mice in which lower doses ameliorate hypoactivity while higher doses induce dyskinesias or uncontrolled movements (Lundblad M. et al., Exp Neurol.194(1):66-75 (2005); Pearce R. K. et al., Mov Disord. 10(6):731-40 (1995); Fredriksson, A. et al, Pharmacol-Toxicol. 67(4): 295-301 (1990)).
Retired breeder male mice were treated with either saline or 2×15 mg/kg MPTP to induce a Parkinsonian state (neurochemical loss of dopamine with corresponding behavioral deficits). On day one baseline stride length was measured and then mice were treated with either MPTP or with saline as a control. On day eight stride length was measured again, and the control value for stride length was derived from the stride length of saline-treated animals. The animals were then divided randomly into treatment groups. Compound OM955 (compound 3) was tested at 0.1 mg/kg, at 0.5 mg/kg, and at 0.1 mg/kg in combination with 1 mg/kg L-dopa.

[5] = plasma and brain concentration in mice after intraperitoneal injection (LC/MS/MS); assay type: in vivo, mouse; conditions: mouse, at 0.5 mg/kg, analogous calculation
Method: Adult male C57BL/6J; retired breeders, aged between 7-9 months (Jackson Laboratory, Bar Harbor, Me., USA), singly housed.
Just prior to the harvesting of tissues, mice were anesthetized with avertin. Samples of whole brain or plasma were collected from three animals per time point at 15 minutes, 30 minutes, 60 minutes, 120 minutes, and 240 minutes after injection. Blood samples were collected by retro-orbital bleeding. Plasma was prepared and red cells were removed by centrifugation. The mice were perfused with saline to remove contaminating blood. The brains were removed and rapidly frozen in liquid nitrogen for subsequent analysis. The plasma and brain samples were stored at −80° C. or on dry ice and the concentration of compound was determined by LC/MS/MS analysis as follows:
Whole brain tissue was homogenized using a Mini-Beaddeater-8™ (BioSpec Products, Bartlesville, Okla.). Plasma or homogenized brain samples were precipitated with acetonitrile and filtered in 96-well format using Captiva 0.20 micron filtration plates (Varian Corp, Lake Forest, Calif.). Filtrates were evaporated under nitrogen to dryness at 50° C. and were then reconstituted for LC-MS analysis.
Quantitative measurements for inhibitory compound in plasma and brain samples were obtained using a Thermo Ultra triple quadrupole mass spectrometer (Thermo Fisher Scientific, San Jose, Calif.), utilizing electrospray ionization in the multiple reaction monitoring mode of data acquisition. Sample extracts were injected onto a 2.1×30 mm packed Xterra C18-MS high pressure liquid chromatography (HPLC) column (Waters Corp, Milford, Mass.). The mobile phase eluting the compound from the HPLC column was applied using a Thermo Surveyor MS Plus HPLC quaternary pumping system (Thermo Fisher Scientific, San Jose, Calif.) and a HTC PAL autoinjector (LEAP Technologies, Chapel Hill, N.C.).

[6] = target: PDE7A (Homo sapiens (Human), UniProt Q13946); assay: PDE7 phosphodiesterase scintillation proximity assay (SPA), PDE7A; assay type: biochemical
[7] = target: T2, Tyrosine Hydroxylase (Rattus norvegicus (Rat), UniProt P04177); conditions: historical value; read-out: Positive Control Expected IC50 (historical), Tyrosine Hydroxylase; cited from earlier work
[8] = target: T2, Tyrosine Hydroxylase; assay: Tyrosine Hydroxylase enzyme assay; assay type: biochemical; conditions: read-out: Positive Control Observed IC50, Tyrosine Hydroxylase
Method: Tyrosine Hydroxylase was assayed as described in Roskoski, R., Jr., et al., J. Biochem 218:363-370 (1993) with the following modifications. Tyrosine Hydroxylase was isolated from Wistar rat brain. The substrate was 100 μM L-[3,5-^3H]Tyrosine+L-Tyrosine. The vehicle control was 1% DMSO. Compound OM69 was tested at 10 μM in incubation buffer (125 mM MES, pH 6.0, 0.5 mg/ml Catalase, 12.5 mM DTT, 0.5 mM (6R)-5,6,7,8-Tetrahydrobiopterin). The reaction was pre-incubated for 15 minutes at 37° C. Tyrosine Hydroxylase enzyme was added, and the reaction was incubated for 20 minutes at 37° C. [^3H]-H20 was quantitated.

PDE7B, sequence (Q9NP56 107-450 limits assumed): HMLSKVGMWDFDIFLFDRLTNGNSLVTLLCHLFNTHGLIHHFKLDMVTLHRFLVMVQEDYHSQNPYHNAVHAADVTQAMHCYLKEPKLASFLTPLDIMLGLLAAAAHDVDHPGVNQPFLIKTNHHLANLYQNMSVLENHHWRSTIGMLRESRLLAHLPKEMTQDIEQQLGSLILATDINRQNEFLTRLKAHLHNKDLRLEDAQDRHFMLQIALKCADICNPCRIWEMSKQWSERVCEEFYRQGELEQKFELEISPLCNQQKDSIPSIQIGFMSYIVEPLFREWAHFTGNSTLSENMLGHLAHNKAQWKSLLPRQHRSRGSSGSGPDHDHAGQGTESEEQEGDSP
PDE7A, sequence (Q13946 whole entry, looked up): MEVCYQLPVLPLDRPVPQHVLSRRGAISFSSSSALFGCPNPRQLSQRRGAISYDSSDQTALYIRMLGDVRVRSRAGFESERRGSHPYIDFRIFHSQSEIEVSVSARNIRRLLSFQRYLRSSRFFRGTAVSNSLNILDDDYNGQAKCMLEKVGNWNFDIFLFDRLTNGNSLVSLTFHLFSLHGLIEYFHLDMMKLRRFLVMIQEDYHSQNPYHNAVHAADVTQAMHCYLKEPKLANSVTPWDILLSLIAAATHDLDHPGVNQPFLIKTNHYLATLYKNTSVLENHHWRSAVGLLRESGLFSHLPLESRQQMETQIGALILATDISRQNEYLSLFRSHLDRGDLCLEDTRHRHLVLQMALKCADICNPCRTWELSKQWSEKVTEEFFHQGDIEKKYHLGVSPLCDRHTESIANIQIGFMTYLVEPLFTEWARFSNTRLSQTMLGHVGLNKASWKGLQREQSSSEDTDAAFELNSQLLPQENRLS
T2 sequence (P04177 whole entry): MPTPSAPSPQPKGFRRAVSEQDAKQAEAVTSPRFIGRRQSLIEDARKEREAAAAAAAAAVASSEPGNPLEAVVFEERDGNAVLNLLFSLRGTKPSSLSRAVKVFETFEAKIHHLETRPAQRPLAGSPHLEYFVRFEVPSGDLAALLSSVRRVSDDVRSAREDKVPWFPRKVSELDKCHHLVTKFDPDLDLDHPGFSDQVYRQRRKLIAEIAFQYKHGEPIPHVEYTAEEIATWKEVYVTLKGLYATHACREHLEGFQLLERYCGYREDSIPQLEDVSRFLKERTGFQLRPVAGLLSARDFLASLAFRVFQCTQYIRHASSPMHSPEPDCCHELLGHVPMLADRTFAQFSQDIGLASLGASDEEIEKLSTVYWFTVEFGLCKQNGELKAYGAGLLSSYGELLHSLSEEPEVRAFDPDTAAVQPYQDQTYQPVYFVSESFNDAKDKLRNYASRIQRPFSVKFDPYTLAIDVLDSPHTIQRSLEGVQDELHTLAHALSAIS
T1 sequence (D3K5L3 1-270): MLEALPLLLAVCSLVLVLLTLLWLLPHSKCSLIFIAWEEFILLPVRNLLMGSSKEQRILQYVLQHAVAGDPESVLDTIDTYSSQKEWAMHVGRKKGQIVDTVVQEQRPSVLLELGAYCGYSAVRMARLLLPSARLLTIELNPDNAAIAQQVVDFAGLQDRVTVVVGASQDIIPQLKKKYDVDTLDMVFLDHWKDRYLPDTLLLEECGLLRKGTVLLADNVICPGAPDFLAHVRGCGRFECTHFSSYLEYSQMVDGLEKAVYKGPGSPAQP

O=[N+]([O-])c1cc(O)c(O)c([N+](=O)[O-])c1 [3,5-Dinitrocatechol, reference compound]
IC50 [1]: 310 nM
IC50 [2]: 606 nM

COc1cc(N)ccc1-c1nc2c(C)nn(C3CCCCC3)c2c(=O)[nH]1 [OM056]
potency of PDE7B inhibition, in words [3]: high potency
IC50 ([3]; unit inferred): 9.27 nM
effect on stride length, in words ([4]; OM056 0.05 mg/kg): statistically significant increase; also recorded: full recovery of baseline stride length
maximal brain concentration at dose where efficacy was observed [5]: 358 nM
potency of PDE7A inhibition, in words [6]: high potency

CC(=O)Nc1ccc(-c2nn(C)/c(=N/C3CCCCC3)s2)cc1 [OM956]
potency of PDE7B inhibition, in words [3]: moderate potency
effect on stride length, in words ([4]; OM956 0.5 mg/kg): statistically significant increase; also recorded: full recovery of baseline stride length
maximal brain concentration at dose where efficacy was observed [5]: 5260 nM
potency of PDE7A inhibition, in words [6]: moderate potency

C[C@](N)(Cc1ccc(O)cc1)C(=O)O [α-Methyl-L-P-Tyrosine, reference compound]
IC50 [7]: 20 µM
IC50 [8]: 20.2 µM
